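Compound exposure: 48 hours, 5 concentrations, 96-well plates. At the GI50, growth is halved.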 Activity calls are given as the source filed them. No stated cut-off is given here; in the data, active = GI50 up to about 1.1 µM and inactive = higher.
Assays:
Assay in all cases: inhibition of tumour cell growth, NCI panel, 48 h
SF-295 = tested on: SF-295
SR = tested on: SR
HCC 2998 = tested on: HCC 2998
PC-3 = tested on: PC-3
DU-145 = tested on: DU-145
TK-10 = tested on: TK-10
ACHN = tested on: ACHN
SW-620 = tested on: SW-620
MCF7 = tested on: MCF7
MDA-N = tested on: MDA-N
M14 = tested on: M14
T47D = tested on: T47D
NCI/ADR-RES = tested on: NCI/ADR-RES
SNB-78 = tested on: SNB-78
M19-MEL = tested on: M19-MEL
DMS-114 = tested on: DMS-114
HOP-18 = tested on: HOP-18
KM-20L2 = tested on: KM-20L2
DMS-273 = tested on: DMS-273
DLD-1 = tested on: DLD-1

Row | Compound | GI50 (SF-295) | GI50 (SR) | GI50 (HCC 2998) | GI50 (PC-3) | GI50 (DU-145) | GI50 (TK-10) | GI50 (ACHN) | GI50 (SW-620) | GI50 (MCF7) | GI50 (MDA-N) | GI50 (M14) | GI50 (T47D) | GI50 (NCI/ADR-RES) | GI50 (SNB-78) | GI50 (M19-MEL) | GI50 (DMS-114) | GI50 (HOP-18) | GI50 (KM-20L2) | GI50 (DMS-273) | GI50 (DLD-1)
1 | O=C(Nc1ccc([N+](=O)[O-])cc1)Nn1cnnc1 | 29 µM (inactive) | 31.6 µM (inactive) | 55.1 µM (inactive) | 42.1 µM (inactive) | 64 µM (inactive) | 42.5 µM (inactive) | > 100 µM (inactive) | 89.7 µM (inactive) | 73.6 µM (inactive) | 34 µM (inactive) | > 100 µM (inactive) | 24 µM (inactive) |  |  |  |  |  |  |  | 
2 | O=c1[nH]c(=O)n(CCOCP(=O)(O)O)nc1Br |  | > 100 µM (inactive) | > 100 µM (inactive) | > 100 µM (inactive) | > 100 µM (inactive) | > 100 µM (inactive) | > 100 µM (inactive) | > 100 µM (inactive) | > 100 µM (inactive) | > 100 µM (inactive) | > 100 µM (inactive) | > 100 µM (inactive) | > 100 µM (inactive) |  |  |  |  |  |  | 
3 | Nc1cc(-c2ccccc2)nn1-c1nsc2ccccc12 |  | 53.2 µM (inactive) | > 100 µM (inactive) |  |  | > 100 µM (inactive) | > 100 µM (inactive) | > 100 µM (inactive) |  |  | > 100 µM (inactive) |  |  | 68.1 µM (inactive) | > 100 µM (inactive) | > 100 µM (inactive) | 0.573 µM (active) | > 100 µM (inactive) | 80.7 µM (inactive) | 
4 | COc1ccc(-c2cc(-c3ccccc3)n(C3OCC(OC(C)=O)C(OC(C)=O)C3OC(C)=O)c(=S)c2C#N)cc1 (stereo not drawn) | 56.4 µM (inactive) | > 100 µM (inactive) | > 100 µM (inactive) | > 100 µM (inactive) | > 100 µM (inactive) | 63 µM (inactive) | 37.4 µM (inactive) | > 100 µM (inactive) | > 100 µM (inactive) | 54.5 µM (inactive) | > 100 µM (inactive) | 78.7 µM (inactive) | > 100 µM (inactive) |  |  |  |  |  |  | 
5 | Cc1c(N2C(=O)/C(=C/C=C/c3ccccc3)N=C2c2ccccc2)c(=O)n(-c2ccccc2)n1C | 19.1 µM (inactive) | 17.4 µM (inactive) |  | 25.6 µM (inactive) | 40.8 µM (inactive) | 32.9 µM (inactive) | 17.8 µM (inactive) | 31.6 µM (inactive) | 28.8 µM (inactive) | 17.8 µM (inactive) | 31.4 µM (inactive) | 30.8 µM (inactive) | 21.7 µM (inactive) |  |  |  |  |  |  | 
6 | O=C(O)CCC(NC(=O)c1ccc(Nc2nc3cc(C(F)(F)F)ccc3nc2-c2ccccc2)cc1)C(=O)O (stereo not drawn) | 20.4 µM (inactive) |  | 66.5 µM (inactive) |  |  |  |  | 68.1 µM (inactive) | 64.9 µM (inactive) |  |  |  | 62.1 µM (inactive) | > 95.9 µM (inactive) | > 100 µM (inactive) | > 100 µM (inactive) | > 100 µM (inactive) | 24.3 µM (inactive) | 24.6 µM (inactive) | > 76 µM (inactive)
7 | CCOC(=O)c1c(C)c2c(n1C)CCc1c[nH]nc1-2 | > 100 µM (inactive) |  | > 100 µM (inactive) |  |  |  |  | > 100 µM (inactive) | > 100 µM (inactive) |  |  |  | > 100 µM (inactive) | > 100 µM (inactive) | > 100 µM (inactive) | > 100 µM (inactive) | > 100 µM (inactive) | > 100 µM (inactive) | > 100 µM (inactive) | > 100 µM (inactive)
8 | COc1ccc(Oc2ccccc2N)cc1 | 26.1 µM (inactive) | 18.3 µM (inactive) | 20.8 µM (inactive) |  |  |  | 24.5 µM (inactive) | 59 µM (inactive) |  |  | 58.7 µM (inactive) |  |  | > 100 µM (inactive) | 50.2 µM (inactive) | 37.2 µM (inactive) | > 100 µM (inactive) | 27.6 µM (inactive) | 29.5 µM (inactive) | 30 µM (inactive)
9 | CCC(=C(C#N)C#N)c1cc(OC)c(OC)c(OC)c1 |  | > 100 µM (inactive) | > 100 µM (inactive) |  |  | > 100 µM (inactive) | > 100 µM (inactive) | > 100 µM (inactive) |  |  | > 100 µM (inactive) |  |  |  | > 100 µM (inactive) | > 100 µM (inactive) | > 100 µM (inactive) | > 100 µM (inactive) | > 100 µM (inactive) | > 100 µM (inactive)
10 | COc1cc2c(cc1OC)C(C(c1ccccc1)c1ccccc1)N(C)CC2 (stereo not drawn) | > 75.9 µM (inactive) |  | 26.3 µM (inactive) |  |  |  |  | > 100 µM (inactive) | 52.4 µM (inactive) |  |  |  | 68.9 µM (inactive) | > 100 µM (inactive) | > 91.6 µM (inactive) | 41.8 µM (inactive) | > 100 µM (inactive) | 32.6 µM (inactive) | 77.3 µM (inactive) | > 78.9 µM (inactive)
11 | Cc1ccc(OC(=O)N2C/C(=C\c3ccccc3)C(=O)/C(=C/c3ccccc3)C2)cc1 | 18.7 µM (inactive) | 3.43 µM (inactive) | 10 µM (inactive) | 27.6 µM (inactive) | > 100 µM (inactive) | 32.1 µM (inactive) | 26.7 µM (inactive) | 4.47 µM (inactive) | 5.14 µM (inactive) | 4.02 µM (inactive) | 8.79 µM (inactive) | > 100 µM (inactive) |  | 28.4 µM (inactive) | 5.53 µM (inactive) | 15.1 µM (inactive) | > 46.2 µM (inactive) | 39.7 µM (inactive) | 4.83 µM (inactive) | 6.84 µM (inactive)
12 | CC1(C)Cc2c(C#N)c(N)c3c(c2CO1)C(=O)OC3=O |  | > 100 µM (inactive) | > 100 µM (inactive) |  |  | > 100 µM (inactive) | > 100 µM (inactive) | > 100 µM (inactive) |  |  | > 100 µM (inactive) |  |  |  | > 100 µM (inactive) | > 100 µM (inactive) | > 100 µM (inactive) | > 100 µM (inactive) | > 100 µM (inactive) | 
13 | O=c1c(C(c2ccc(C(c3c(O)oc4cc(O)ccc4c3=O)c3c(O)oc4cc(O)ccc4c3=O)cc2)c2c(O)oc3cc(O)ccc3c2=O)c(O)oc2cc(O)ccc12 | > 100 µM (inactive) | > 100 µM (inactive) | > 100 µM (inactive) | > 100 µM (inactive) | > 100 µM (inactive) | > 100 µM (inactive) |  | > 100 µM (inactive) | > 100 µM (inactive) | > 100 µM (inactive) | > 100 µM (inactive) | > 100 µM (inactive) | > 100 µM (inactive) |  |  |  |  |  |  | 
14 | O=C1C=C2SC3C[C@@]24CC1[N+]1=c2c4c(c(O)c4c2=C(C=N4)CC1)N3 | 3.43 µM (inactive) |  | 2.74 µM (inactive) |  |  |  |  | 2.62 µM (inactive) | 2.08 µM (inactive) |  |  |  | 6.68 µM (inactive) | 2.61 µM (inactive) | 1.9 µM (inactive) | 1.39 µM (inactive) | 6.49 µM (inactive) | 1.92 µM (inactive) | 2.12 µM (inactive) | 2.07 µM (inactive)
15 | Oc1cc(O)cc(/C=C/c2ccc(O)c(O)c2)c1 [PICEATANNOL] | 16.5 µM (inactive) |  | 16.7 µM (inactive) |  |  |  |  | 13 µM (inactive) | 20.1 µM (inactive) |  |  |  | 16.6 µM (inactive) | 17.9 µM (inactive) | 12.2 µM (inactive) | 5.66 µM (inactive) | 45.5 µM (inactive) | 23.4 µM (inactive) | 12.3 µM (inactive) | 8.57 µM (inactive)
